Test results from paper PMC10686834, “Targeting myeloid chemotaxis to reverse prostate cancer therapy resistance” (Nature, 2023).

Tested on: patients with ARSI-resistant mCRPC
Test: Phase 1 trial of AZD5069 plus enzalutamide: safety and tolerability (DLTs, treatment-emergent adverse events, NCI-CTCAE v.4.0)
Type: in vivo
Source text: The primary trial objective was to evaluate the safety and tolerability of the combination. Key secondary objectives were to evaluate pharmacokinetic–pharmacodynamic parameters and antitumour activity.
Eligible patients were consenting patients aged ≥18 years, who had mCRPC with histologically confirmed prostate adenocarcinoma histology, documented cancer progression at the time of trial entry by Response Evaluation Criteria in Solid Tumors (v.1.1) and/or Prostate Cancer Working Group 2 criteria, and PSA of ≥10 ng ml^−1 at screening.
The dose-escalation phase used a rule-based 3 + 3 design, with an initial three patients enrolled per dose level. If none of the first three patients experienced a DLT, dose escalation proceeded to the next dose level. […] If fewer than two of six patients at any dose level experienced a DLT, dose escalation continued to the next level. If at least two out of up to six patients experienced a DLT, dose escalation stopped and this dose level was defined as the maximum administered dose. Once this maximum administered dose was defined, the maximum tolerated dose (MTD) was confirmed at the dose level below the maximum administered dose. At least six evaluable patients were required to establish the MTD at a specific dose level. […] Intra-patient dose escalation was not permitted. Start of dosing between the first and second patient enrolled to each dose level was staggered by 1 week. Once the MTD was determined in the phase 1 study, the recommended phase 2 dose was determined on the basis of available data, including but not limited to safety and response.
DLTs were defined as described in the study protocol. […] Prophylaxis with growth factor support or antipyretics were not permitted. Investigators determined whether an adverse event was related to the study drugs. If a patient experienced clinically significant and/or unacceptable toxicity, including a DLT, not attributable to the disease or disease-related processes, dosing was interrupted or the dose was reduced and supportive therapy was administered as required.

**Q.** What does the source list for `C[C@@H](Oc1cc(NS(=O)(=O)N2CCC2)nc(SCc2cccc(F)c2F)n1)[C@@H](O)CO` [AZD5069]?
**A.** TEAE Oedema genital, All G (AZD5069 320 mg BD (n=7)): 0 (0) n (%); TEAE Oedema genital, G≥3 (AZD5069 320 mg BD (n=7)): 0 (0) n (%); TEAE Platelet decreased, All G (AZD5069 320 mg BD (n=7)): 0 (0) n (%); TEAE Platelet decreased, G≥3 (AZD5069 320 mg BD (n=7)): 0 (0) n (%); TEAE Pruritus, All G (AZD5069 320 mg BD (n=7)): 0 (0) n (%); TEAE Pruritus, G≥3 (AZD5069 320 mg BD (n=7)): 0 (0) n (%); TEAE Skin infection, All G (AZD5069 320 mg BD (n=7)): 0 (0) n (%); TEAE Skin infection, G≥3 (AZD5069 320 mg BD (n=7)): 0 (0) n (%); TEAE Vomiting, All G (AZD5069 320 mg BD (n=7)): 0 (0) n (%); TEAE Vomiting, G≥3 (AZD5069 320 mg BD (n=7)): 0 (0) n (%); TEAE White blood cell decreased, All G (AZD5069 320 mg BD (n=7)): 1 (14) n (%); TEAE White blood cell decreased, G≥3 (AZD5069 320 mg BD (n=7)): 0 (0) n (%); TEAE Anemia, All G (All patients (n=23)): 4 (17) n (%); TEAE Anemia, G≥3 (All patients (n=23)): 1 (4) n (%); TEAE Aphasia, All G (All patients (n=23)): 1 (4) n (%); TEAE Aphasia, G≥3 (All patients (n=23)): 0 (0) n (%); TEAE Arthralgia, All G (All patients (n=23)): 1 (4) n (%); TEAE Arthralgia, G≥3 (All patients (n=23)): 0 (0) n (%); TEAE Aspartate aminotransferase increased, All G (All patients (n=23)): 1 (4) n (%); TEAE Aspartate aminotransferase increased, G≥3 (All patients (n=23)): 0 (0) n (%); TEAE Constipation, All G (All patients (n=23)): 2 (9) n (%); TEAE Constipation, G≥3 (All patients (n=23)): 0 (0) n (%); TEAE Death, All G (All patients (n=23)): 1 (4) n (%); TEAE Death, G≥3 (All patients (n=23)): 1 (4) n (%); TEAE Decreased appetite, All G (All patients (n=23)): 1 (4) n (%); TEAE Decreased appetite, G≥3 (All patients (n=23)): 0 (0) n (%); TEAE Diarrhoea, All G (All patients (n=23)): 1 (4) n (%); TEAE Diarrhoea, G≥3 (All patients (n=23)): 1 (4) n (%); TEAE Dry skin, All G (All patients (n=23)): 1 (4) n (%); TEAE Dry skin, G≥3 (All patients (n=23)): 0 (0) n (%); TEAE Fatigue, All G (All patients (n=23)): 7 (30) n (%); TEAE Fatigue, G≥3 (All patients (n=23)): 0 (0) n (%); TEAE Headache, All G (All patients (n=23)): 3 (13) n (%); TEAE Headache, G≥3 (All patients (n=23)): 0 (0) n (%); TEAE Hypophosphataemia, All G (All patients (n=23)): 1 (4) n (%); TEAE Hypophosphataemia, G≥3 (All patients (n=23)): 0 (0) n (%); TEAE Nausea, All G (All patients (n=23)): 5 (22) n (%); TEAE Nausea, G≥3 (All patients (n=23)): 0 (0) n (%); TEAE Neutrophil decreased, All G (All patients (n=23)): 19 (83) n (%); TEAE Neutrophil decreased, G≥3 (All patients (n=23)): 11 (48) n (%); TEAE Oedema genital, All G (All patients (n=23)): 1 (4) n (%); TEAE Oedema genital, G≥3 (All patients (n=23)): 0 (0) n (%); TEAE Platelet decreased, All G (All patients (n=23)): 2 (9) n (%); TEAE Platelet decreased, G≥3 (All patients (n=23)): 0 (0) n (%); TEAE Pruritus, All G (All patients (n=23)): 1 (4) n (%); TEAE Pruritus, G≥3 (All patients (n=23)): 0 (0) n (%); TEAE Skin infection, All G (All patients (n=23)): 1 (4) n (%); TEAE Skin infection, G≥3 (All patients (n=23)): 0 (0) n (%); TEAE Vomiting, All G (All patients (n=23)): 1 (4) n (%); TEAE Vomiting, G≥3 (All patients (n=23)): 0 (0) n (%); TEAE White blood cell decreased, All G (All patients (n=23)): 3 (13) n (%); TEAE White blood cell decreased, G≥3 (All patients (n=23)): 0 (0) n (%); permanent treatment discontinuation due to treatment-emergent adverse events (all dose levels): no permanent treatment discontinuation; treatment-emergent anaemia, all grades (all dose levels, 23 patients): 17%; treatment-emergent anaemia, grade ≥ 3 (all dose levels, 23 patients): 4%; treatment-emergent constipation, all grades (all dose levels, 23 patients): 9%; treatment-emergent fatigue, all grades (all dose levels, 23 patients): 30%; treatment-emergent headache, all grades (all dose levels, 23 patients): 13%; treatment-emergent leukopaenia, all grades (all dose levels, 23 patients): 13%; treatment-emergent nausea, all grades (all dose levels, 23 patients): 22%; treatment-emergent neutropaenia, all grades (all dose levels, 23 patients): 83%; treatment-emergent neutropaenia, grade ≥ 3 (all dose levels, 23 patients): 48%; treatment-emergent thrombocytopaenia, all grades (all dose levels, 23 patients): 9%
